Experimental data taken from patent publication US20210255184A1, “Biosensor Device and Methods” (The New Zealand Institute for Plant and Food Research …, priority 2018, published 2021).
pEC50: −log10 of the molar value.

Columns and labels:
Assay type in all cases: biochemical
Or10a = target: T1, Or10a (Drosophila melanogaster, UniProt Q9VYZ1); assay: EIS sensor, Or10a liposomes on gold electrode
T1 construct: his-tag; made in house; host or cells: baculovirus-infected Sf9 cells
T1 sequence (Q9VYZ1 1-406): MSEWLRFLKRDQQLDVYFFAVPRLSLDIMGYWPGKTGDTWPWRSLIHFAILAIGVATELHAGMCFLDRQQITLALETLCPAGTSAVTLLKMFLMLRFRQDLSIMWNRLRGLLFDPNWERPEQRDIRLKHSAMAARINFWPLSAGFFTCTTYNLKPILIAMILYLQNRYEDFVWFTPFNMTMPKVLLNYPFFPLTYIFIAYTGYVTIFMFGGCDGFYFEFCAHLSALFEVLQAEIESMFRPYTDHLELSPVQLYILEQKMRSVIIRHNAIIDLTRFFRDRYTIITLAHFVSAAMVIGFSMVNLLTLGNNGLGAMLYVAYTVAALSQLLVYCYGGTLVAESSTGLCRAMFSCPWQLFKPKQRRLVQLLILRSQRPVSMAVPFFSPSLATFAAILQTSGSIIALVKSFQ
Experimental: (§1) Prior to their use, liposomes were defrosted on ice and then destabilized by incubating with 0.2% CHAPS for 15 min at room temperature. Then 200 μg of purified odorant receptor^28 was added to 1 mg of liposomes and rotated at 10 rpm for 1 h at room temperature. Excess detergent was removed by four additions of 25 mg of Bio-Beads SM-2 (Bio-Rad, USA) and incubation at 4° C. for 30 min, 2 h, overnight and a further 2 h respectively. The Bio-Beads were removed after each incubation period. The OrX or OrX/Orco integrated liposomes were pelleted by centrifugation at 100,000 g for 1 h, and were resuspended in 500 μL of rehydration buffer. Integration of OrXs and Orco into liposomes was assessed by density gradient ultracentrifugation (DGU) using Accudenz (Accurate Chemical & Scientific Corporation, USA). The integrated liposomes were brought to 40% Accudenz by the addition of an equal volume of 80% Accudenz solution, placed at the bottom of an ultra-centrifugation tube, and overlaid with 30% Accudenz solution, and DGU buffer (25 mM HEPES pH 7.5, 100 mM NaCl, 10% glycerol). The sample was then centrifuged at 100,000 g for 4 h at 4° C. Liposomes will float to the top of the gradient after Accudenz DGU due to their low density.
2 mM MHA was prepared by dissolving 1.36 μl of MHA in 5 ml ethanol (AR grade). The cleaned electrodes were immersed into MHA solution and incubated overnight. The next day, all the electrodes were washed with ethanol and deionised water thoroughly in order to remove the unreacted acid. A 2:1 mol:mol ratio of EDC:NHS (100 mM EDC, 50 mM NHS) was prepared in 2 ml PBS (pH=6.5) solution. Then, the electrodes were covered in 100 μl of this solution at 28° C. for an hour to activate the carboxylic (COOH) groups of the MHA.
(§2) PBS solution was prepared by immersing one tablet of PBS in 200 ml of milli-Q water (according to manufacturers instructions) and filtered using 0.2-μm syringe filter. The pH of the prepared buffer solution was measured with a pH meter. OrX liposomes or OrX/Orco liposomes were diluted 100 fold in PBS buffer solution (pH=7.4) and the COOH-activated electrodes were incubated in that buffer solution at room temperature for one hour. Then, the electrodes were washed extensively with PBS buffer solution to wash out any unbound liposomes.
(§3) PBS (pH=7.4) was used as an electrolyte to conduct electrochemical measurements. PBS buffer was degassed for about 30 minutes prior to electrochemical measurements. Odorant solutions of concentration ranging from 1 aM to 1 μM were prepared by sequential dilution in PBS solution containing 1% DMSO. OR immobilized electrodes were incubated in relevant odorant solution for ˜30 minutes each and washed gently with PBS before EIS measurements.
(§4) EIS measurements were done in a 3 electrode cell containing Ag/AgCl (3 M NaCl, 0.209 V vs. SHE) reference electrode, coiled platinum wire as a counter electrode and the gold disk as a working electrode at a fixed voltage of −0.7 using PalmSens potentiostat. Degassed PBS was used as an electrolyte.
(§5) EIS measurements were performed on gold electrodes functionalised with OrX liposomes (either Or10a or Or22a), OrX/Orco liposomes, or empty liposomes prior to and after target ligand or control ligand incubation with increasing concentrations (1 aM to 100 μM). Dose response curves were obtained by defining sensor response as −(ΔRp/R^op) versus log[C(Ligand)]. FIG. 4a presents the EIS response in terms of Nyquist plot for the Or10a liposome functionalized sensors when exposed to a solution containing one of the known target ligands of Or10a, methyl salicylate, at various concentrations. […] The dose response curve (FIG. 4b) was obtained by plotting the change in polarization resistance −(ΔRp/R^op) versus log[conc(Ligand)], as the sensor response. Here, Rp is the polarization resistance after Or10a liposome-target interaction and R^op is the polarization resistance before Or10a liposome-target interaction.

[1] = EIS sensor, empty liposomes (specificity control); conditions: empty liposomes without receptor
Experimental: as §2, §3, §4
as §5, with “Here, Rp is the polarization resistance after Or10a liposome-target interaction and R^op is the polarization resistance before Or10a liposome-target interaction.” left out

Orco = target: T2, Orco (Drosophila melanogaster, UniProt Q9VNB5); assay: EIS sensor, Orco liposomes (specificity control); conditions: Orco only liposomes
T2 construct: his-tag; made in house; host or cells: baculovirus-infected Sf9 cells
T2 sequence (Q9VNB5 1-486): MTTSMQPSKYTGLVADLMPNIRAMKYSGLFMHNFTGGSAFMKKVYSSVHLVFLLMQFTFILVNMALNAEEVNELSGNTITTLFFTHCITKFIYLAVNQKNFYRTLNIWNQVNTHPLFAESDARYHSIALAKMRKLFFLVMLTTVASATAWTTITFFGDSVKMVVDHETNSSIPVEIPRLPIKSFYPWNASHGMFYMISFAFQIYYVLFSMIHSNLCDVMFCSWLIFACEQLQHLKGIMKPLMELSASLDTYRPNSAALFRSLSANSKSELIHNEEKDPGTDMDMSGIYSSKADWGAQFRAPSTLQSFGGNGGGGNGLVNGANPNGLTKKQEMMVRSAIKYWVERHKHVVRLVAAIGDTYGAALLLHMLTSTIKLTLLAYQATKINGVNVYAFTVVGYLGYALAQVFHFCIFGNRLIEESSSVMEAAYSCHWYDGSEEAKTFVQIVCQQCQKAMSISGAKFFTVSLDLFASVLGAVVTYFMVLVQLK
Experimental: as §1, with “Liposomes will float to the top of the gradient after Accudenz DGU due to their low density.” left out
PBS solution was prepared by immersing one tablet of PBS in 200 ml of milli-Q water (according to manufacturers instructions) and filtered using 0.2-μm syringe filter. The pH of the prepared buffer solution was measured with a pH meter. […]

SMILES	sensor response to control ligand (Or10a; EIS dose response)	sensor response to ligand [1]	sensor response to ligand (Orco)	limit of detection (LOD) (Or10a; EIS dose response, ligand 1 aM to 100 μM)	pEC50 (Or10a; Table 1, approximate)	Sensitivity limit (Or10a; Table 1, * estimated visually from dose response graph)	Detection Range (Or10a; Table 3)	pEC50 (Or10a; Table 3, fitted dose response)
CCCCCC(=O)OC [methyl hexanoate]	negligible response	negligible response	negligible response					
COC(=O)c1ccccc1O [methyl salicylate]		negligible response	negligible response	0.1 pM	~10.00	~10^−10 M*	10^−13 to 10^−7 M	11.66
